Assay results as given in ChEMBL document CHEMBL1201862, “PubChem BioAssay data set” (2004).
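Exposure lasted 48 hours, with cells grown in 96-well plates and compounds tested at five concentrations. GI50: concentration for 50% inhibition of growth.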 Active and inactive are the calls of the source. No stated cut-off is given here; in the data, active = GI50 up to about 1.1 µM and inactive = higher.

What was measured:
Test in all cases: NCI anticancer screen, dose series, 48 h
A549 = system: A549
CCRF-CEM = system: CCRF-CEM
HOP-62 = system: HOP-62
M19-MEL = system: M19-MEL
MOLT-4 = system: MOLT-4
NCI-H460 = system: NCI-H460
OVCAR-5 = system: OVCAR-5
SF-295 = system: SF-295
SF-539 = system: SF-539
SN12C = system: SN12C
SNB-75 = system: SNB-75
UACC-62 = system: UACC-62
UO-31 = system: UO-31
HOP-92 = system: HOP-92
RXF 393 = system: RXF 393

Measured: GI50

Oc1cc(C2OCCCO2)cc(O)c1O
inactive: A549 > 100 µM | CCRF-CEM > 100 µM | HOP-62 > 100 µM | M19-MEL > 100 µM | MOLT-4 > 100 µM | NCI-H460 > 100 µM | OVCAR-5 > 100 µM | SF-295 > 100 µM | SF-539 > 100 µM | SN12C > 100 µM | SNB-75 > 100 µM | UACC-62 > 100 µM | UO-31 > 100 µM

COc1ccccc1/N=N/C(C(=O)c1ccccc1)C(=O)c1ccccc1
inactive: A549 22.4 µM | CCRF-CEM 7.91 µM | HOP-62 15.5 µM | M19-MEL 15 µM | MOLT-4 9.48 µM | NCI-H460 19.6 µM | OVCAR-5 32.1 µM | SF-295 17.8 µM | SF-539 26.2 µM | SN12C 17.2 µM | SNB-75 19.9 µM | UACC-62 13.2 µM | UO-31 12.8 µM

C[Si](C)(C)C(CCCCSc1ccccc1)(Sc1ccccc1)Sc1ccccc1
inactive: A549 > 100 µM | CCRF-CEM > 100 µM | HOP-92 73.6 µM | M19-MEL > 100 µM | MOLT-4 > 100 µM | NCI-H460 > 100 µM | RXF 393 > 100 µM | SF-295 > 100 µM | SF-539 > 100 µM | SN12C > 100 µM | SNB-75 > 100 µM | UACC-62 36.1 µM | UO-31 > 100 µM

CC(=O)NC(CC(C)C)C(=O)NC(Cc1ccccc1)C(=S)N1CCCC1 (stereo unspecified)
inactive: A549 > 100 µM | CCRF-CEM > 100 µM | HOP-62 > 100 µM | HOP-92 > 100 µM | M19-MEL > 100 µM | MOLT-4 > 100 µM | NCI-H460 > 100 µM | OVCAR-5 > 100 µM | RXF 393 > 100 µM | SF-295 > 100 µM | SN12C > 100 µM | SNB-75 > 100 µM | UACC-62 > 100 µM | UO-31 > 100 µM

CCOC(=O)C1=C(Nc2ccc(Br)cc2)OC/C1=N\NC(=O)c1ccccc1O
inactive: A549 4.06 µM | CCRF-CEM 9.66 µM | HOP-62 11.2 µM | M19-MEL 35 µM | MOLT-4 11.4 µM | NCI-H460 12.9 µM | OVCAR-5 46.1 µM | RXF 393 1.29 µM | SF-295 14.2 µM | SF-539 11.2 µM | SN12C 52.4 µM | UACC-62 2.67 µM | UO-31 9.71 µM

CCOc1ccc(NC(=O)CC2SC(Nc3ccc(C)cc3C)=NC2=O)cc1 (stereo unspecified)
inactive: A549 > 100 µM | CCRF-CEM 29.2 µM | HOP-92 > 100 µM | M19-MEL > 100 µM | MOLT-4 21.4 µM | NCI-H460 > 100 µM | OVCAR-5 > 100 µM | RXF 393 > 100 µM | SF-295 > 100 µM | SF-539 26.7 µM | SN12C > 100 µM | SNB-75 49.2 µM | UACC-62 54.2 µM | UO-31 > 100 µM

CC(C)NC(C)Cc1ccccc1 (stereo unspecified)
inactive: A549 > 100 µM | CCRF-CEM > 100 µM | HOP-62 > 100 µM | HOP-92 > 100 µM | M19-MEL > 100 µM | NCI-H460 > 100 µM | OVCAR-5 > 100 µM | RXF 393 > 100 µM | SF-295 > 100 µM | SF-539 > 100 µM | SN12C > 100 µM | SNB-75 > 100 µM | UACC-62 > 100 µM | UO-31 > 100 µM

CCOC(=O)C1(C)C2=CC=C(O2)C(C)(C)C2=CC=C(O2)C(C)(C)C2=CC=C(O2)C(C)(C)C2=CC=C1O2
inactive: A549 42.6 µM | CCRF-CEM 64.3 µM | HOP-62 > 100 µM | HOP-92 36.5 µM | M19-MEL > 100 µM | MOLT-4 53.5 µM | NCI-H460 > 100 µM | OVCAR-5 > 100 µM | RXF 393 > 100 µM | SF-295 > 100 µM | SF-539 > 100 µM | SN12C > 100 µM

[N-]=[N+]=Nc1ccc(CCN2CCN(c3cccc(C(F)(F)F)c3)CC2)cc1I
inactive: A549 95.7 µM | CCRF-CEM 54.1 µM | M19-MEL 83 µM | MOLT-4 40.4 µM | NCI-H460 62.4 µM | OVCAR-5 34 µM | RXF 393 33.1 µM | SF-295 > 100 µM | SF-539 > 100 µM | SN12C 49 µM | SNB-75 41.7 µM | UACC-62 > 100 µM | UO-31 21.1 µM

O=C(CC(=O)Nc1ccc(Cl)cc1)NNCC(=O)Nc1nc(-c2ccccc2)cs1
inactive: A549 > 100 µM | CCRF-CEM > 100 µM | HOP-62 > 100 µM | M19-MEL > 100 µM | MOLT-4 > 100 µM | NCI-H460 > 100 µM | RXF 393 > 100 µM | SF-295 > 100 µM | SF-539 > 100 µM | SN12C > 100 µM | SNB-75 > 100 µM | UACC-62 47.5 µM
